Read-outs that look alike come from different tables or passages of the source.
What was measured:
[1] = target: NAMPT (Homo sapiens (Human), UniProt P43490); assay: NAMPT biochemical inhibition assay (NMN quantified by mass spectrometry); conditions: NAMPT biochemical inhibition; read-out: Biochem IC50
[2] = system: A2780 cells; assay: In-vitro cell proliferation assay (SRB), A2780 cells; format: cell-based; conditions: A2780 cells, 72 hours, SRB, read-out: A2780 IC50;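 also: viable cell number read as SRB absorbance, background from media-only wells subtracted, IC50 interpolated from percent inhibition at two bracketing compound concentrations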

NAMPT, sequence (P43490 whole entry): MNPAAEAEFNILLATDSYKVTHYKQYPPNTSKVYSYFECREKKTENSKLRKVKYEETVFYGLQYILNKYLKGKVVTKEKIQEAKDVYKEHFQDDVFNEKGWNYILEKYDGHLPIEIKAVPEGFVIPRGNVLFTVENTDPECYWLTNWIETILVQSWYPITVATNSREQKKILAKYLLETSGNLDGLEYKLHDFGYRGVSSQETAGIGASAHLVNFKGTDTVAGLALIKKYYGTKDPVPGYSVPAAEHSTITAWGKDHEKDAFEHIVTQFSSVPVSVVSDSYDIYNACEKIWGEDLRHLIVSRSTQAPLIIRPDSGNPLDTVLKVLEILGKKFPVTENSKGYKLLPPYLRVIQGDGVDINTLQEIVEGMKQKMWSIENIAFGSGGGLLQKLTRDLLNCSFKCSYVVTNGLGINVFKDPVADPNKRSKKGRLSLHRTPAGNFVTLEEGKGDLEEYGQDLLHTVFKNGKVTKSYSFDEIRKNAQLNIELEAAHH

| IC50 [1] [nM] | IC50 ([2]; Homo sapiens, A2780, 72 h) [nM] | SMILES | IC50 [2] [nM] |
| --- | --- | --- | --- |
| 16 | 507 | COc1ccc(CNS(=O)(=O)c2ccc(NC(=O)NCc3cccnc3)cc2)cc1 [3-(4-{[(4-methoxyphenyl)methyl]sulfamoyl}phenyl)-1-(pyridin-3-ylmethyl)urea] | – |
| 5 | 134 | CCc1ccc(CN(C)S(=O)(=O)c2ccc(NC(=O)NCc3cccnc3)cc2)nc1 [3-(4-{[(5-ethylpyridin-2-yl)methyl](methyl)sulfamoyl}phenyl)-1-(pyridin-3-ylmethyl)urea] | – |
| 1 | 8 | C[C@@H](c1ccccc1)N(C)S(=O)(=O)c1ccc(NC(=O)NCc2cccnc2)cc1 [3-(4-{methyl[(1S)-1-phenylethyl]sulfamoyl}phenyl)-1-(pyridin-3-ylmethyl)urea] | – |
| 3 | 76 | O=C(NCc1cccnc1)Nc1ccc(S(=O)(=O)Nc2ccccc2-n2cccc2)cc1 [3-(pyridin-3-ylmethyl)-1-(4-{[2-(1H-pyrrol-1-yl)phenyl]sulfamoyl}phenyl)urea] | – |
| 13 | 11 | O=C(NCc1cccnc1)Nc1ccc(S(=O)(=O)Nc2ccccc2N2CCCC2)cc1 [3-(pyridin-3-ylmethyl)-1-(4-{[2-(pyrrolidin-1-yl)phenyl]sulfamoyl}phenyl)urea] | – |
| 16 | 111 | O=C(NCc1cccnc1)Nc1ccc(S(=O)(=O)N2CCc3ncccc3C2)cc1 [3-(pyridin-3-ylmethyl)-1-[4-(5,6,7,8-tetrahydro-1,6-naphthyridine-6-sulfonyl)phenyl]urea] | – |
| 5 | 595 | O=C(NCc1cccnc1)Nc1ccc(S(=O)(=O)c2cccnc2)cc1 [3-(pyridin-3-ylmethyl)-1-[4-(pyridine-3-sulfonyl)phenyl]urea] | – |
| 11 | 488 | O=C(NCc1cccnc1)Nc1ccc(S(=O)(=O)c2ccncc2)cc1 [3-(pyridin-3-ylmethyl)-1-[4-(pyridine-4-sulfonyl)phenyl]urea] | – |
| 20 | 871 | O=C(NCc1cccnc1)Nc1ccc(S(=O)(=O)c2cncnc2)cc1 [3-(pyridin-3-ylmethyl)-1-[4-(pyrimidine-5-sulfonyl)phenyl]urea] | – |
| 2.8 | 28 | O=C(NCc1cccnc1)Nc1ccc(S(=O)(=O)c2cnc3ccccc3c2)cc1 [3-(pyridin-3-ylmethyl)-1-[4-(quinoline-3-sulfonyl)phenyl]urea] | – |
| 2.7 | 44.1 | O=C(NCc1cccnc1)Nc1ccc(S(=O)(=O)c2ccc3ncccc3c2)cc1 [3-(pyridin-3-ylmethyl)-1-[4-(quinoline-6-sulfonyl)phenyl]urea] | – |
| 1.4 | 2.2 | O=C(NCc1cccnc1)Nc1ccc(S(=O)(=O)c2cccc3cccnc23)cc1 [3-(pyridin-3-ylmethyl)-1-[4-(quinoline-8-sulfonyl)phenyl]urea] | – |
| 1.3 | 7.6 | O=C(NCc1cccnc1)Nc1ccc(S(=O)(=O)c2ccc(C(=O)N3CCCC3)cc2)cc1 [3-(pyridin-3-ylmethyl)-1-[4-({4-[(pyrrolidin-1-yl)carbonyl]benzene}sulfonyl)phenyl]urea] | – |
| 9 | 137 | O=C(NCc1cccnc1)Nc1ccc(S(=O)(=O)N2CCC[C@H](C(=O)N3CCCC3)C2)cc1 [3-(pyridin-3-ylmethyl)-1-{4-[(3S)-3-[(pyrrolidin-1-yl)carbonyl]piperidine-1-sulfonyl]phenyl}urea] | – |
| 0.3 | 45 | O=C(NCc1cccnc1)Nc1ccc(S(=O)(=O)Nc2cccc3c2CCCC3)cc1 [3-(pyridin-3-ylmethyl)-1-{4-[(5,6,7,8-tetrahydronaphthalen-1-yl)sulfamoyl]phenyl}urea] | – |
| 23 | 1000 | O=C(NCc1cccnc1)Nc1ccc(S(=O)(=O)N2CCCCC2)cc1F [3-[2-fluoro-4-(piperidine-1-sulfonyl)phenyl]-1-(pyridin-3-ylmethyl)urea] | – |
| 1 | 59.9 | Cn1ncc2c(S(=O)(=O)c3ccc(NC(=O)NCc4cccnc4)cc3)cccc21 [3-[4-(1-methyl-1H-indazole-4-sulfonyl)phenyl]-1-(pyridin-3-ylmethyl)urea] | – |
| 1.8 | 92.5 | Cn1ncc2cc(S(=O)(=O)c3ccc(NC(=O)NCc4cccnc4)cc3)ccc21 [3-[4-(1-methyl-1H-indazole-5-sulfonyl)phenyl]-1-(pyridin-3-ylmethyl)urea] | – |
| 2.5 | 35.4 | Cn1ncc2ccc(S(=O)(=O)c3ccc(NC(=O)NCc4cccnc4)cc3)cc21 [3-[4-(1-methyl-1H-indazole-6-sulfonyl)phenyl]-1-(pyridin-3-ylmethyl)urea] | – |
| 14.4 | 100 to 1000 | Cn1ncc2cccc(S(=O)(=O)c3ccc(NC(=O)NCc4cccnc4)cc3)c21 [3-[4-(1-methyl-1H-indazole-7-sulfonyl)phenyl]-1-(pyridin-3-ylmethyl)urea] | – |
| 3 | 63.5 | Cn1c(S(=O)(=O)c2ccc(NC(=O)NCc3cccnc3)cc2)cc2ccccc21 [3-[4-(1-methyl-1H-indole-2-sulfonyl)phenyl]-1-(pyridin-3-ylmethyl)urea] | – |

| IC50 [1] [nM] | IC50 ([2]; Homo sapiens, A2780, 72 h) [nM] | SMILES | IC50 [2] [nM] |
| --- | --- | --- | --- |
| 6.3 | 13.1 | CCCn1cc(S(=O)(=O)c2ccc(NC(=O)NCc3cccnc3)cc2)cn1 [3-[4-(1-propyl-1H-pyrazole-4-sulfonyl)phenyl]-1-(pyridin-3-ylmethyl)urea] | – |
| 2 | 31 | O=C(NCc1cccnc1)Nc1ccc(S(=O)(=O)N2CCc3ccccc32)cc1 [3-[4-(2,3-dihydro-1H-indole-1-sulfonyl)phenyl]-1-(pyridin-3-ylmethyl)urea] | – |
| 6.7 | 21 | COc1ncc(S(=O)(=O)c2ccc(NC(=O)NCc3cccnc3)cc2)c(OC)n1 [3-[4-(2,4-dimethoxypyrimidine-5-sulfonyl)phenyl]-1-(pyridin-3-ylmethyl)urea] | – |
| 2 | 12 | COc1ccc2ccccc2c1S(=O)(=O)c1ccc(NC(=O)NCc2cccnc2)cc1 [3-[4-(2-methoxynaphthalene-1-sulfonyl)phenyl]-1-(pyridin-3-ylmethyl)urea] | – |
| 8.7 | 100 to 1000 | COc1ncc(S(=O)(=O)c2ccc(NC(=O)NCc3cccnc3)cc2)cn1 [3-[4-(2-methoxypyrimidine-5-sulfonyl)phenyl]-1-(pyridin-3-ylmethyl)urea] | – |
| 7.2 | 100 to 1000 | Cc1ncccc1S(=O)(=O)c1ccc(NC(=O)NCc2cccnc2)cc1 [3-[4-(2-methylpyridine-3-sulfonyl)phenyl]-1-(pyridin-3-ylmethyl)urea] | – |
| 59 | 7860 | O=C(NCc1cccnc1)Nc1ccc(S(=O)(=O)N2CC(F)(F)C2)cc1 [3-[4-(3,3-difluoroazetidine-1-sulfonyl)phenyl]-1-(pyridin-3-ylmethyl)urea] | – |
| 20 | 850 | Cc1noc(C)c1S(=O)(=O)c1ccc(NC(=O)NCc2cccnc2)cc1 [3-[4-(3,5-dimethyl-1,2-oxazole-4-sulfonyl)phenyl]-1-(pyridin-3-ylmethyl)urea] | – |
| 2.6 | 98.2 | O=C(NCc1cccnc1)Nc1ccc(S(=O)(=O)c2cncc(Cl)c2)cc1 [3-[4-(5-chloropyridine-3-sulfonyl)phenyl]-1-(pyridin-3-ylmethyl)urea] | – |
| 8.7 | 100 to 1000 | O=C(NCc1cccnc1)Nc1ccc(S(=O)(=O)c2cncc(F)c2)cc1 [3-[4-(5-fluoropyridine-3-sulfonyl)phenyl]-1-(pyridin-3-ylmethyl)urea] | – |
| 3 | 383 | Cc1ccc(S(=O)(=O)c2ccc(NC(=O)NCc3cccnc3)cc2)s1 [3-[4-(5-methylthiophene-2-sulfonyl)phenyl]-1-(pyridin-3-ylmethyl)urea] | – |
| 1.6 | 100 to 1000 | COc1ccc2cc(S(=O)(=O)c3ccc(NC(=O)NCc4cccnc4)cc3)ccc2c1 [3-[4-(6-methoxynaphthalene-2-sulfonyl)phenyl]-1-(pyridin-3-ylmethyl)urea] | – |
| 5 | 100 to 1000 | COc1ccc(S(=O)(=O)c2ccc(NC(=O)NCc3cccnc3)cc2)cn1 [3-[4-(6-methoxypyridine-3-sulfonyl)phenyl]-1-(pyridin-3-ylmethyl)urea] | – |
| 4.9 | 100 to 1000 | Cc1ccc(S(=O)(=O)c2ccc(NC(=O)NCc3cccnc3)cc2)cn1 [3-[4-(6-methylpyridine-3-sulfonyl)phenyl]-1-(pyridin-3-ylmethyl)urea] | – |
| 90 | 15900 | O=C(Nc1ccc(S(=O)(=O)c2ccccc2)cc1)Nc1ccc2ncccc2c1 [3-[4-(benzenesulfonyl)phenyl]-1-(quinolin-6-yl)urea] | – |
| 3790 | > 10000 | O=C(NCc1ccc(-n2cccn2)nc1)Nc1ccc(S(=O)(=O)c2ccccc2)cc1 [3-[4-(benzenesulfonyl)phenyl]-1-{[6-(1H-pyrazol-1-yl)pyridin-3-yl]methyl}urea] | – |
| 2120 | > 10000 | COCCOc1ccc(CNC(=O)Nc2ccc(S(=O)(=O)c3ccccc3)cc2)cn1 [3-[4-(benzenesulfonyl)phenyl]-1-{[6-(2-methoxyethoxy)pyridin-3-yl]methyl}urea] | – |
| 273 | > 30000 | O=C(NCc1cnccn1)Nc1ccc(S(=O)(=O)N2CCCCC2)cc1 [3-[4-(piperidine-1-sulfonyl)phenyl]-1-(pyrazin-2-ylmethyl)urea] | – |
| 1140 | > 30000 | O=C(NCc1cncnc1)Nc1ccc(S(=O)(=O)N2CCCCC2)cc1 [3-[4-(piperidine-1-sulfonyl)phenyl]-1-(pyrimidin-5-ylmethyl)urea] | – |
| 22100 | > 30000 | CC(NC(=O)Nc1ccc(S(=O)(=O)N2CCCCC2)cc1)c1cccnc1 (stereo not drawn) [3-[4-(piperidine-1-sulfonyl)phenyl]-1-[1-(pyridin-3-yl)ethyl]urea] | – |

| SMILES | IC50 [1] [nM] | IC50 ([2]; Homo sapiens, A2780, 72 h) [nM] | IC50 [2] [nM] |
| --- | --- | --- | --- |
| CC(C)c1ccc(CN2CCN(S(=O)(=O)c3ccc(NC(=O)NCc4cccnc4)cc3)CC2)cc1 [3-[4-(4-{[4-(propan-2-yl)phenyl]methyl[piperazine-1-sulfonyl)phenyl]-1-(pyridin-3-ylmethyl)urea] | 35.8 | – | 1000 to 10000 |
